Structures are written as SMILES. In brackets after ≈: the same amount, converted by molar mass. Several values for one entry are separate records, joined by “and”; a condition that tells them apart may be missing. Identical values can stand only once.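 Protocol summary: plate cells (96-well), add compound at 5 concentrations, incubate 48 h, interpolate endpoints linearly. GI50: concentration for 50% inhibition of growth. Definition used: TGI = concentration required for complete inhibition of growth.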

Among the test systems are SNB-78 CNS; RXF-631 renal; LXFL 529 NSCLC; DMS 114 small cell lung; DLD-1 colon; DMS 273 small cell lung; MDA-N; XF 498 CNS; HOP-18 NSCLC.
What all share (assay): DTP human tumour cell line panel, 48 h

For the compound `Cc1cc(Cl)ccc1NC(=O)CCCC(=O)C(C(=O)c1ccccc1)c1ccccc1` (stereo not given), the TGI in the test with SNB-78 CNS, in the test on RXF-631 renal, in the test on LXFL 529 NSCLC, with DMS 114 small cell lung, with DLD-1 colon and in the test on DMS 273 small cell lung was > 100 µM throughout.
With `COc1ccc(/C=C/c2cnc3ccccc3n2)cc1OC`, the TGI with MDA-N is > 100 µM.
As to `O=C(O)c1oc2cccc3c2c1CCC3`, the TGI in the test on SNB-78 CNS, with RXF-631 renal, in the test on XF 498 CNS, in the test with LXFL 529 NSCLC, in the test on DMS 114 small cell lung and with DLD-1 colon was > 100 µM each time. In the test on DMS 273 small cell lung, the TGI was > 100 µM.
On to `[N-]=[N+]=Nc1c(Br)c(=O)[nH]c(=O)n1COCCO`, for which the TGI in the test on SNB-78 CNS, in the test on RXF-631 renal, in the test with XF 498 CNS, with LXFL 529 NSCLC, in the test with DMS 114 small cell lung and with DLD-1 colon was > 100 µM in each case. Also, the TGI in the test on HOP-18 NSCLC and with DMS 273 small cell lung was > 100 µM in each case.
On to `CNC(C)Cc1ccc(O)cc1` (stereo not given), for which the TGI in the test with SNB-78 CNS, with RXF-631 renal, in the test with XF 498 CNS, in the test on LXFL 529 NSCLC, in the test with DMS 114 small cell lung and with DLD-1 colon was > 100 µM in each case. Besides, the TGI in the test on HOP-18 NSCLC and in the test with DMS 273 small cell lung was > 100 µM in each case.
For the compound `c1ccc(COc2cccc3cccnc23)cc1`, the TGI in the test on RXF-631 renal, in the test on XF 498 CNS, with LXFL 529 NSCLC, in the test with DMS 114 small cell lung, in the test on DLD-1 colon and in the test with HOP-18 NSCLC was > 100 µM each time.
Take `Cc1c(N)nc(C(CC(N)=O)NCC(N)C(N)=O)nc1C(=O)NC(C(=O)NC(C)C(O)C(C)C(=O)NC(C(=O)NCCc1nc(-c2nc(C(=O)NCCCNCCCCN)cs2)cs1)C(C)O)C(OC1OC(CO)C(O)C(O)C1OC1OC(CO)C(O)C(OC(N)=O)C1O)c1cnc[nH]1` (stereo not given): in the test with MDA-N, the GI50 was 27.4 µg/mL (≈ 19 µM). Further, the TGI in the test with SNB-78 CNS, in the test on RXF-631 renal, in the test on XF 498 CNS, with LXFL 529 NSCLC, with DMS 114 small cell lung and with DLD-1 colon was > 10 µM throughout. In addition, the TGI in the test with HOP-18 NSCLC and with DMS 273 small cell lung was > 10 µM throughout.
On to `CC1=NN(C(=O)c2cc(Cl)cc([N+](=O)[O-])c2)C(=O)C1N=Nc1ccccc1C(=O)O` (stereo not given), for which the TGI in the test on SNB-78 CNS, in the test with RXF-631 renal, in the test with LXFL 529 NSCLC, in the test on DLD-1 colon, in the test on HOP-18 NSCLC and in the test on DMS 273 small cell lung was > 100 µM each time.
For the compound `CCOC(=O)/C(C#N)=C(N)/C(=N\Nc1cccc(C(F)(F)F)c1)C(=O)OCC`, the TGI in the test with SNB-78 CNS, with LXFL 529 NSCLC, in the test on DMS 114 small cell lung, with DLD-1 colon, in the test with HOP-18 NSCLC and in the test with DMS 273 small cell lung was > 100 µM throughout.
For `COC(=O)C12C3C4C1C1C2C3C41C(=O)N(C(C)C)C(C)C` (stereo not given), the TGI with SNB-78 CNS, in the test with LXFL 529 NSCLC, in the test with DMS 114 small cell lung, in the test with DLD-1 colon and in the test on DMS 273 small cell lung was > 100 µM each time.
For the compound `Cc1cccc(O)c(=O)c1`, the TGI in the test with SNB-78 CNS was > 100 µM; in the test with LXFL 529 NSCLC, > 100 µM; in the test with DMS 114 small cell lung, 45.7 µM; in the test with DLD-1 colon, > 100 µM; in the test with HOP-18 NSCLC, > 100 µM; with DMS 273 small cell lung it was > 100 µM.
In the case of `CCCCN(CCCC)C(=O)C(=O)CC(=O)/C=C/c1ccccc1`, the TGI in the test on SNB-78 CNS, in the test with RXF-631 renal, with LXFL 529 NSCLC, in the test on DMS 114 small cell lung, in the test with DLD-1 colon and in the test with HOP-18 NSCLC was > 100 µM in each case. Moreover, the TGI in the test on DMS 273 small cell lung was > 100 µM.
Consider `CCCCCCCCCCCCCCC(O)C1CCC(C(O)CCC(O)CCCCCC(O)CC2=CC(C)OC2=O)O1` (stereo not given), for which the TGI was found to be 8.31 µM with SNB-78 CNS; 16.4 µM in the test with RXF-631 renal; 4.88 µM with XF 498 CNS; 13 µM in the test with LXFL 529 NSCLC; 4.57 µM in the test on DMS 114 small cell lung; 11.9 µM in the test with DLD-1 colon. Moreover, in the test on DMS 273 small cell lung, the TGI is 4.75 µM.
On to `CCOC(=O)NC(=O)c1cn(C2OC(CO)C(O)C2O)c(=O)[nH]c1=O` (stereo not given), for which the TGI in the test on RXF-631 renal, in the test on LXFL 529 NSCLC, in the test on DMS 114 small cell lung, in the test on DLD-1 colon and in the test on DMS 273 small cell lung was > 100 µM in each case.
For `COc1cc(C(=O)C/C(CCC(=O)Nc2ccc(Cl)cc2Cl)=N/Nc2nnc(C)n2N)ccc1O`, the TGI in the test with SNB-78 CNS, with XF 498 CNS, in the test with LXFL 529 NSCLC, in the test with DLD-1 colon, in the test on HOP-18 NSCLC and with DMS 273 small cell lung was > 100 µM in each case.
Turning to `COc1cc(N=Nc2cccc(S(N)(=O)=O)c2)c2ccccc2c1N`, the TGI with MDA-N worked out at 5.63 µM.
`C=Cc1cnc([N+](=O)[O-])n1C`: in the test with MDA-N, the TGI is > 100 µM.
In the case of `O=c1cccccc1NCCNc1cccccc1=O`, the concentration for total growth inhibition (TGI) in the test on SNB-78 CNS, in the test on RXF-631 renal, in the test with XF 498 CNS, in the test with LXFL 529 NSCLC, in the test on DMS 114 small cell lung and in the test on DMS 273 small cell lung was > 100 µM throughout.
For `COc1cccc2ccc3c(c12)C(=O)OC31CCc2c(C)cccc21` (stereo not given), the TGI in the test with MDA-N was > 100 µM; in the test on SNB-78 CNS, > 100 µM; in the test on XF 498 CNS, 86.2 µM; in the test on LXFL 529 NSCLC it was > 31.6 µM; in the test with DMS 114 small cell lung it was > 31.6 µM; in the test with DLD-1 colon, > 31.6 µM. Further, the TGI in the test with HOP-18 NSCLC and with DMS 273 small cell lung was > 31.6 µM each time.
Consider `C[C@@H](c1ccccc1)N(CC#N)C1CCC[C@H]1O` (stereo not given in full), for which the TGI in the test with SNB-78 CNS, with RXF-631 renal, in the test on XF 498 CNS, in the test on HOP-18 NSCLC and in the test with DMS 273 small cell lung was > 100 µM throughout.
In the case of `O=C(Nc1ccccc1C(=O)O)C(=O)C(C(=O)c1ccccc1-c1ccccc1)C1OC(=O)c2ccccc21` (stereo not given), the TGI in the test with SNB-78 CNS was > 100 µM; in the test on XF 498 CNS, 22 µM; with LXFL 529 NSCLC, 28 µM; with DLD-1 colon it was 47 µM; in the test on HOP-18 NSCLC, 28.2 µM; with DMS 273 small cell lung, 95.3 µM.
For `O=C1NC(O)CCN1C1CC(O)C(CO)O1` (stereo not given), the TGI with MDA-N is > 100 µM.
Still for that read-out and setting: the value for `CC(=O)Nc1cc2cc(NS(=O)(=O)c3cc(C(F)(F)F)cc(C(F)(F)F)c3)ccc2oc1=O` was > 100 µM; that for `S=c1[nH]nc(SCc2ccccc2Cl)c2[nH]cnc12` was > 100 µM.
As to `N[C@H](C(=O)O)[C@@H](Cl)CC(=O)O`, the TGI with SNB-78 CNS, with XF 498 CNS, in the test with LXFL 529 NSCLC, in the test on DMS 114 small cell lung, in the test on DLD-1 colon and in the test with HOP-18 NSCLC was > 100 µM throughout. Besides, in the test with DMS 273 small cell lung, the TGI was > 100 µM.
For the compound `COC(=O)C1=C(c2cc(OC)c(OC)c(OC)c2)O[C@H](c2ccc3c(c2)OCO3)[C@H]1COC(C)=O`, the TGI in the test on SNB-78 CNS was > 100 µM; in the test with RXF-631 renal, > 100 µM; with XF 498 CNS, > 100 µM; in the test with LXFL 529 NSCLC, 69.2 µM; with DLD-1 colon it was > 100 µM; in the test with HOP-18 NSCLC, > 100 µM. The TGI in the test on DMS 273 small cell lung was > 100 µM.
For the compound `C/C=C/C(=O)[O-].N.N.N.N.N.[Co+3].[O-][Cl+3]([O-])([O-])[O-]`, the GI50 with SNB-78 CNS, in the test with LXFL 529 NSCLC, in the test with DLD-1 colon and in the test on DMS 273 small cell lung was > 100 µM in each case. Moreover, the TGI with SNB-78 CNS, with LXFL 529 NSCLC, in the test on DLD-1 colon and in the test with DMS 273 small cell lung was > 100 µM in each case.
In the case of `Cc1ccc(SCC(O)=C2C(=O)CCCC2=O)cc1`, the TGI with SNB-78 CNS, with RXF-631 renal, with XF 498 CNS, in the test on LXFL 529 NSCLC, with DMS 114 small cell lung and with DLD-1 colon was > 100 µM throughout. The TGI in the test on HOP-18 NSCLC and with DMS 273 small cell lung was > 100 µM throughout.
For `O=[N+]([O-])c1ccc(NC(=S)N/N=C(\c2ccccc2)c2ccccn2)cc1`, in the test on MDA-N, the TGI is 3.32 µM and 3.1 µM.
For `COc1cc2c3c(c1OC)Oc1ccc(cc1)CC1c4c(cc(OC)c(OC)c4Oc4ccc(cc4)CC3N(C)CC2)CCN1C` (stereo not given), the TGI in the test with LXFL 529 NSCLC was 39.6 µM; in the test on DMS 114 small cell lung, 35.9 µM; in the test with DLD-1 colon, > 100 µM; in the test with HOP-18 NSCLC, 84.2 µM; with DMS 273 small cell lung, 37.2 µM.
In the test on MDA-N, `Cc1cc(O)c2c(c1)C(=O)C(c1c(C)cc3c(c1O)C(=O)C1OC1C3=O)=CC2=O` (stereo not given) returned a TGI of 2.75 µM. In other words, the single-digit micromolar range.
The same measure, in the same setting: for `CC(C)N(Cc1ccccc1)S(=O)(=O)c1n[nH]c(C(C)(C)C)n1` the value was > 100 µM.
With `CCC1(CC)C(=O)[N-]C(=O)[N-]C1=O.[Au+].[Au+].c1ccc([PH+](c2ccccc2)c2ccccc2)cc1.c1ccc([PH+](c2ccccc2)c2ccccc2)cc1`, in the test with LXFL 529 NSCLC, the GI50 was 0.153 µM and the TGI was determined as 0.323 µM. Also, in the test on HOP-18 NSCLC, the GI50 is 0.256 µM and the total growth inhibition concentration (TGI) was 1.16 µM.
Regarding `O=C1C2=C(c3ccccc31)C(c1ccc(Cl)cc1)NC(=S)N2` (stereo not given), the TGI in the test with LXFL 529 NSCLC worked out at 29.5 µM; in the test on DMS 114 small cell lung, 67.5 µM; with DLD-1 colon, 60.9 µM; in the test on DMS 273 small cell lung it was 42.8 µM.
Turning to `O=C1C2=C(c3ccccc31)C(c1ccc(F)cc1)N1C(=O)CCSC1=N2` (stereo not given), the TGI in the test on XF 498 CNS, in the test on LXFL 529 NSCLC, with DMS 114 small cell lung, in the test on DLD-1 colon and with DMS 273 small cell lung was > 100 µM throughout.
As for `Cc1ccc(C)c2c1CCc1cc3ccccc3nc1-2`, the concentration for total growth inhibition (TGI) in the test on SNB-78 CNS, in the test on XF 498 CNS, in the test on LXFL 529 NSCLC, in the test with DMS 114 small cell lung, with DLD-1 colon and in the test on HOP-18 NSCLC was > 100 µM each time.
In the case of `O=C(O)Cc1cc(=O)[nH]c2c1C(=O)CCC2`, the TGI in the test on XF 498 CNS, with LXFL 529 NSCLC, in the test with DLD-1 colon, in the test on HOP-18 NSCLC and in the test with DMS 273 small cell lung was > 100 µM throughout.

In general, TGI refers to the concentration giving total growth inhibition. Low values mean greater sensitivity of the cells, high ones lower sensitivity of the cells. For orientation: GI50 means the concentration at which growth is held to half of that of the control.

The values above are taken from PubChem BioAssay (NCI).
